Experimental data from publication PMC9887599, “Synthesis, Optical Properties, and Antiproliferative Evaluation of NBD-Triterpene Fluorescent Probes” (Journal of Natural Products, 2022).

Key:
[1] = system: WRL68 human embryonic hepatic cells; assay: MTT cytotoxicity on nontumor cells, WRL68; format: cell-based
Protocol: (§1) Due to their greater cytotoxic activity, NBD conjugates 1 and 2 were selected to analyze their cytotoxic effects on healthy cells, using nontumor cell lines (HPF human pulmonary fibroblasts, IEC-18 epithelial rat ileum cells, and WRL68 human embryonic hepatic cells) (Table 3). The selectivity indices (SI) of the NBD-Aa-triterpene conjugates 1 and 2 were calculated with the formula: IC50 nontumor cells/IC50 cancer cells. Additionally, cell-viability percentages in the nontumor cells were measured, which ranged in most cases between 75 and 90%.
(§2) The effect of the synthesized compounds on the viability of tumor cells was assessed using the MTT assay, based on the ability of living cells to metabolically reduce 3-(4,5-dimethylthiazole)-2,5-diphenyltetrazole bromide, rendering formazan, a colored compound with a maximum absorbance of 570 nm. To study the cytotoxic effects of the compounds in the three cancer cell lines, the different lines were seeded in 96-well plates at a cell density per well of 5 × 10^3 for B16-F10, 6 × 10^3 for HT-29, and 15 × 10^3 for HepG2. After seeding, the plates were grown for 24 h and subsequently treated in triplicate with different compounds at different concentrations (0–200 μg/mL) for 72 h. After this time, the cells were stained by adding 100 mL of MTT (0.5 mg/mL) per well and incubated for 1 h. Subsequently, the cells were washed with phosphate-buffered saline (PBS), and formazan was resuspended in 100 μL of DMSO per well. Cell viability was measured by absorbance at 550 nm in an ELISA plate reader (Tecan Sunrise MR20–301, TECAN, Austria).
(§3) For this, Sigmaplot 12.5 software was used, and all quantitative data were expressed as means ± standard deviation (SD). All data shown are representative of at least two independent experiments performed in triplicate.

[2] = system: HPF human pulmonary fibroblasts; assay: MTT cytotoxicity on nontumor cells, HPF; format: cell-based
Protocol: as §1, §2, §3

[3] = Absorption and fluorescence spectroscopy (photophysical data); format: physicochemical; conditions: DMSO, 25 °C; for τ (half-life time of fluorescence): 485 nm pulsed LED; for Φ (fluorescence quantum yield): Coumarin 6 as standard; for (λem)max: excitation at 480 nm
[4] = system: IEC-18 epithelial rat ileum cells; assay: MTT cytotoxicity on nontumor cells, IEC-18; format: cell-based
Protocol: as §1, §2, §3

[5] = system: HT-29 human colon adenocarcinoma; assay: MTT cell-viability assay, HT-29; format: cell-based; conditions: 72 h, untreated control cells as 100% viability
Protocol: (§4) The cytotoxic effects of 12 NBD-Aa-triterpene conjugates (1–12) were tested on three different cancer cell lines as a representation of cancers from different tissues and organs (B16-F10 murine melanoma, HT-29 human colon adenocarcinoma, and HepG2 human hepatocyte carcinoma). Cell viability was determined by MTT colorimetric analysis, with increasing concentration levels of each compound (0–200 μg/mL) and incubation for 72 h. The MTT assay was based on the metabolic reduction of 3-(4,5-dimethylthiazol-2-yl)-2,5-diphenyltetrazolium bromide (MTT) to a violet-colored compound (formazan), with a maximum absorbance at 570 nm. Cell viability was proportional to the amount of formazan and was expressed as the percentage of viable treated cells relative to untreated control cells. The concentration at which the derivatives halved the number of viable cells in the three cancer lines (IC50) was determined. […] These NBD conjugates of BO or BM also had higher IC50 values than their precursors (BO or BM), even in NBD conjugates with the shortest-chain ω-amino acid linker (6AHA) (Table 2). Due to these high IC50 values, all of these NBD-conjugated compounds were discarded for further cytometric studies.
as §2, §3

[6] = Cell-viability percentages in nontumor cells, summary; format: cell-based; conditions: human, rat; in most cases
Protocol: as §1
as §2, with “After this time, the cells were stained by adding 100 mL of MTT (0.5 mg/mL) per well and incubated for 1 h. Subsequently, the cells were washed with phosphate-buffered saline (PBS), and formazan was resuspended in 100 μL of DMSO per well.” left out

[7] = system: HepG2 human hepatocyte carcinoma; assay: MTT cell-viability assay, HepG2; format: cell-based; conditions: 72 h, untreated control cells as 100% viability
Protocol: as §4, §2, §3

B16-F10 murine melanoma = assay: MTT cell-viability assay, B16-F10; format: cell-based; conditions: Mus musculus, 72 h, untreated control cells as 100% viability
Protocol: as §4, §2, §3

[8] = system: B16-F10, HT-29, and HepG2; assay: MTT cell-viability assay, summary over the three cancer cell lines; format: cell-based, mouse, human; conditions: 72 h, stated as holding in most cases, read-out: IC50 concentrations over the three cancer cell lines, in most cases
Protocol: as §4, §2, §3

In the case of CC1(C)CC[C@]2(C(=O)O)CC[C@]3(C)C(=CC[C@@H]4[C@@]5(C)CC[C@H](OC(=O)CCCCCNc6ccc([N+](=O)[O-])c7nonc67)C(C)(C)[C@@H]5CC[C@]43C)[C@@H]2C1 [Compound 1, 3β-((6-((7-Nitrobenzo[c][1,2,5]oxadiazol-4-yl)amino)hexanoyl)oxy)olean-12-en-28-oic Acid], the IC50 ([1]; Homo sapiens, WRL68, MTT assay, nontumor cells) is reported as 37.9 ± 0.2 µM, the “SI (selectivity index, IC50 nontumor cells/IC50 cancer cells), WRL68” value ([1]; column beside WRL68) is reported as 3 and the IC50 ([2]; Homo sapiens, Pulmonary fibroblast, MTT assay, nontumor cells) is reported as 39.7 ± 1.2 µM. The “SI (selectivity index, IC50 nontumor cells/IC50 cancer cells), HPF” value ([2]; column beside HPF) was 17, the “ε (molar extinction coefficient)” value [3] was 2539 M^–1 cm^–1 and the “τ (half-life time of fluorescence)” value [3] was 7.712 ns. For the same compound, the “Φ (fluorescence quantum yield)” value [3] was 0.76, the “(λem)max” value [3] was 546 nm and the IC50 ([4]; Rattus norvegicus, IEC-18, MTT assay, nontumor cells) was 41 ± 0.3 µM. The “SI (selectivity index, IC50 nontumor cells/IC50 cancer cells), IEC-18” value ([4]; column beside IEC-18) was 2, the IC50 [5] was 19.5 ± 0.1 µM and the viability at 72 h [6] was 75 to 90%. The IC50 [7] was 12.5 ± 0.1 µM and the IC50 (B16-F10 murine melanoma) was 2.4 ± 0.1 µM.

With CC1(C)CC[C@]2(C(=O)O)CC[C@]3(C)C(=CC[C@@H]4[C@@]5(C)C[C@@H](OC(=O)CCCCCCCNc6ccc([N+](=O)[O-])c7nonc67)[C@H](O)C(C)(C)[C@@H]5CC[C@]43C)[C@@H]2C1 [Compound 6, 3β-Hydroxy-2α-((8-((7-nitrobenzo[c][1,2,5]oxadiazol-4-yl)amino)octanoyl)oxy)olean-12-en-28-oic Acid] the IC50 [8] was > 50 µM, the “(λabs)max” value [3] was 481 nm and the “ε (molar extinction coefficient)” value [3] was 1986 M^–1 cm^–1. The “τ (half-life time of fluorescence)” value [3] was 7.621 ns, the “Φ (fluorescence quantum yield)” value [3] was 0.55 and the “(λem)max” value [3] was 546 nm. The IC50 [5] was 45.2 ± 0.9 µM, the IC50 [7] was 98.5 ± 0.8 µM and the IC50 (B16-F10 murine melanoma) was 39.5 ± 0.8 µM.

With CC1(C)CC[C@]2(C(=O)OCc3ccccc3)CC[C@]3(C)C(=CC[C@@H]4[C@@]5(C)CC[C@H](OC(=O)CCCCCCCNc6ccc([N+](=O)[O-])c7nonc67)C(C)(C)[C@@H]5CC[C@]43C)[C@@H]2C1 [Compound 7, Benzyl 3β-((8-((7-Nitrobenzo[c][1,2,5]oxadiazol-4-yl)amino)octanoyl)oxy)olean-12-en-28-oate] the IC50 [8] was > 80 µM, the “(λabs)max” value [3] was 480 nm and the “ε (molar extinction coefficient)” value [3] was 2645 M^–1 cm^–1. The “τ (half-life time of fluorescence)” value [3] was 7.724 ns, the “Φ (fluorescence quantum yield)” value [3] was 0.71 and the “(λem)max” value [3] was 547 nm. The IC50 [5] was 95.9 ± 2.2 µM, the IC50 [7] was 71.6 ± 1.7 µM and the IC50 (B16-F10 murine melanoma) was 74.2 ± 2.2 µM.

With CC1(C)CC[C@]2(C(=O)OCc3ccccc3)CC[C@]3(C)C(=CC[C@@H]4[C@@]5(C)C[C@@H](OC(=O)CCCCCCCNc6ccc([N+](=O)[O-])c7nonc67)[C@H](O)C(C)(C)[C@@H]5CC[C@]43C)[C@@H]2C1 [Compound 8, Benzyl 3β-Hydroxy-2α-((8-((7-nitrobenzo[c][1,2,5]oxadiazol-4-yl)amino)octanoyl)oxy)olean-12-en-28-oate] the IC50 [8] was > 80 µM, the “(λabs)max” value [3] was 481 nm and the “ε (molar extinction coefficient)” value [3] was 3358 M^–1 cm^–1. For the same compound, the “τ (half-life time of fluorescence)” value [3] was 7.639 ns, the “Φ (fluorescence quantum yield)” value [3] was 0.59 and the “(λem)max” value [3] was 548 nm. The IC50 [5] was 123 ± 1.7 µM, the IC50 [7] was 95.3 ± 0.7 µM and the IC50 (B16-F10 murine melanoma) was 96.8 ± 1.8 µM.

For CC1(C)CC[C@]2(C(=O)O)CC[C@]3(C)C(=CC[C@@H]4[C@@]5(C)CC[C@H](OC(=O)CCCCCCCCCCNc6ccc([N+](=O)[O-])c7nonc67)C(C)(C)[C@@H]5CC[C@]43C)[C@@H]2C1 [Compound 9, 3β-((11-((7-Nitrobenzo[c][1,2,5]oxadiazol-4-yl)amino)undecanoyl)oxy)olean-12-en-28-oic Acid], the IC50 [8] was > 50 µM, the “(λabs)max” value [3] was 481 nm and the “ε (molar extinction coefficient)” value [3] was 1015 M^–1 cm^–1. The “τ (half-life time of fluorescence)” value [3] was 7.635 ns, the “Φ (fluorescence quantum yield)” value [3] was 0.71 and the “(λem)max” value [3] was 546 nm. For the same compound, the IC50 [5] was 113 ± 4.4 µM, the IC50 [7] was 84.5 ± 0.4 µM and the IC50 (B16-F10 murine melanoma) was 101.1 ± 0.9 µM.

In the case of CC1(C)CC[C@]2(C(=O)O)CC[C@]3(C)C(=CC[C@@H]4[C@@]5(C)C[C@@H](OC(=O)CCCCCCCCCCNc6ccc([N+](=O)[O-])c7nonc67)[C@H](O)C(C)(C)[C@@H]5CC[C@]43C)[C@@H]2C1 [Compound 10, 3β-Hydroxy-2α-((11-((7-nitrobenzo[c][1,2,5]oxadiazol-4-yl)amino)undecanoyl)oxy)olean-12-en-28-oic Acid], the IC50 [8] is reported as > 50 µM, the “(λabs)max” value [3] is reported as 481 nm and the “ε (molar extinction coefficient)” value [3] is reported as 1199 M^–1 cm^–1. For the same compound, the “τ (half-life time of fluorescence)” value [3] was 7.153 ns, the “Φ (fluorescence quantum yield)” value [3] was 0.45 and the “(λem)max” value [3] was 546 nm. For the same compound, the IC50 [5] was 110 ± 5.2 µM, the IC50 [7] was 122.8 ± 0.9 µM and the IC50 (B16-F10 murine melanoma) was 107.7 ± 0.4 µM.

In the case of CC1(C)CC[C@]2(C(=O)OCc3ccccc3)CC[C@]3(C)C(=CC[C@@H]4[C@@]5(C)CC[C@H](OC(=O)CCCCCCCCCCNc6ccc([N+](=O)[O-])c7nonc67)C(C)(C)[C@@H]5CC[C@]43C)[C@@H]2C1 [Compound 11], the IC50 [8] is reported as > 80 µM, the “(λabs)max” value [3] is reported as 480 nm and the “ε (molar extinction coefficient)” value [3] is reported as 2718 M^–1 cm^–1. The “τ (half-life time of fluorescence)” value [3] was 7.645 ns, the “Φ (fluorescence quantum yield)” value [3] was 0.49 and the “(λem)max” value [3] was 546 nm. The IC50 [5] was 101 ± 1.1 µM, the IC50 [7] was 82.7 ± 2.5 µM and the IC50 (B16-F10 murine melanoma) was 92.3 ± 1.5 µM.

With CC1(C)CC[C@]2(C(=O)OCc3ccccc3)CC[C@]3(C)C(=CC[C@@H]4[C@@]5(C)C[C@@H](OC(=O)CCCCCCCCCCNc6ccc([N+](=O)[O-])c7nonc67)[C@H](O)C(C)(C)[C@@H]5CC[C@]43C)[C@@H]2C1 [Compound 12] the IC50 [8] was > 80 µM, the “(λabs)max” value [3] was 480 nm and the “ε (molar extinction coefficient)” value [3] was 2710 M^–1 cm^–1. For the same compound, the “τ (half-life time of fluorescence)” value [3] was 7.633 ns, the “Φ (fluorescence quantum yield)” value [3] was 0.46 and the “(λem)max” value [3] was 546 nm. It also gave an IC50 [5] of 108 ± 3.8 µM, an IC50 [7] of 80.9 ± 1.1 µM and an IC50 (B16-F10 murine melanoma) of 80.8 ± 0.9 µM.
